Source: patent US20170333591A9, “ABSORBENT ARTICLE COMPRISING MALODOR REDUCTION COMPOSITIONS” (The Procter & Gamble Company, priority 2014, published 2017)

Assay: Log of liquid dish neat product liquid-air partition coefficient
Assay type: physicochemical
Conditions: not given

Compound	Comment Code: Log of liquid dish neat product liquid-air partition coefficient
CC1(CO)CC1CC1CC2CC2(C)C1(C)C (stereo not drawn) [Material 185]	K (Log of liquid dish neat product liquid-air partition coefficient greater than or equal to 7)
C=C[C@@](C)(O)CCC=C(C)C [Material 1017]	K (Log of liquid dish neat product liquid-air partition coefficient greater than or equal to 7)
CC1=C2CCC3(C)OC3C2C(C)(C)CCC1 (stereo not drawn) [Material 624]	K (Log of liquid dish neat product liquid-air partition coefficient greater than or equal to 7)
CC(C)C(=O)OC1CC2CC1C1C=CCC21 (stereo not drawn) [Material 487]	K (Log of liquid dish neat product liquid-air partition coefficient greater than or equal to 7)
C=C1CC[C@@H]2[C@H]([C@H]3[C@H]1CC[C@]3(C)O)C2(C)C [Material 1035]	K (Log of liquid dish neat product liquid-air partition coefficient greater than or equal to 7)
COC(C)(C)CCCC(C)C=O (stereo not drawn) [Material 125]	K (Log of liquid dish neat product liquid-air partition coefficient greater than or equal to 7)
C=CC(C)(C#N)Cc1ccccc1 (stereo not drawn) [Material 504]	K (Log of liquid dish neat product liquid-air partition coefficient greater than or equal to 7)
O=C/C=C/c1ccccc1 [Material 554]	K (Log of liquid dish neat product liquid-air partition coefficient greater than or equal to 7)
CC(=O)CCC1C(C)=CCCC1(C)C (stereo not drawn) [Material 448]	K (Log of liquid dish neat product liquid-air partition coefficient greater than or equal to 7)
CC=CC(=O)C1C(C)=CCCC1(C)C (stereo not drawn) [Material 1074]	K (Log of liquid dish neat product liquid-air partition coefficient greater than or equal to 7)
CCC(=O)OCCc1ccccc1 [Material 835]	K (Log of liquid dish neat product liquid-air partition coefficient greater than or equal to 7)

Same assay, conditions: Comment Code letters K and/or L

Compound	Log of liquid dish neat product liquid-air partition coefficient (Comment Code K/L)
CC(C=O)=CCC1C(C)=CCCC1(C)C (stereo not drawn) [Material 1116]	K (Log of liquid dish neat product liquid-air partition coefficient greater than or equal to 7)

Same assay, conditions: code letter within the Comment Code cell

Compound	Log of liquid dish neat product liquid-air partition coefficient (Comment Code K/L)
CC/C=C\CCOC(=O)c1ccccc1 [Material 541]	K (Log of liquid dish neat product liquid-air partition coefficient greater than or equal to 7)
CC1(CO)CC1CC1CC2CC2(C)C1(C)C (stereo not drawn) [Material 185]	K (Log of liquid dish neat product liquid-air partition coefficient greater than or equal to 7)
Cc1ccc2c(c1)CC(C)(CO)C2 (stereo not drawn) [Material 161]	K (Log of liquid dish neat product liquid-air partition coefficient greater than or equal to 7)
O=C1CCC=CCCCCCCCCCC1 [Material 372]	K (Log of liquid dish neat product liquid-air partition coefficient greater than or equal to 7)
C=CC(=C)CCCC(C)(C)O [Material 34]	K (Log of liquid dish neat product liquid-air partition coefficient greater than or equal to 7)
CC(CO)C1CCCCCCCCCCC1 (stereo not drawn) [Material 252]	K (Log of liquid dish neat product liquid-air partition coefficient greater than or equal to 7)
CC(C)C(=O)OC1CC2CC1C1C=CCC21 (stereo not drawn) [Material 487]	K (Log of liquid dish neat product liquid-air partition coefficient greater than or equal to 7)
OCC=Cc1ccccc1 [Material 555]	K (Log of liquid dish neat product liquid-air partition coefficient greater than or equal to 7)
OC1CCC2CCCCC2C1 (stereo not drawn) [Material 474]	K (Log of liquid dish neat product liquid-air partition coefficient greater than or equal to 7)
COC(=O)C=Cc1ccccc1 [Material 117]	K (Log of liquid dish neat product liquid-air partition coefficient greater than or equal to 7)
CC1=C(CCC(C)C=O)C(C)(C)CCC1 (stereo not drawn) [Material 560]	K (Log of liquid dish neat product liquid-air partition coefficient greater than or equal to 7)

Same assay, conditions: code letters K/L of the Comment Code

Compound	Log of liquid dish neat product liquid-air partition coefficient (Comment Code)
O=C(Oc1ccccc1)c1ccccc1 [Material 965]	K (Log of liquid dish neat product liquid-air partition coefficient greater than or equal to 7)
CC(C)=CCCC1=CCC(C)(C=O)CC1 (stereo not drawn) [Material 727]	K (Log of liquid dish neat product liquid-air partition coefficient greater than or equal to 7)
C=CC(C)=CCC=C(C)CCC=C(C)C [Material 710]	K (Log of liquid dish neat product liquid-air partition coefficient greater than or equal to 7)
CC1=CC2CC(C3OCCO3)C1CC2C(C)C (stereo not drawn) [Material 912]	K (Log of liquid dish neat product liquid-air partition coefficient greater than or equal to 7)
CC(C)c1ccc2ncccc2c1 [Material 778]	K (Log of liquid dish neat product liquid-air partition coefficient greater than or equal to 7)
CC(=O)CCCC(C)CCCC(C)CCCC(C)C (stereo not drawn) [Material 782]	K (Log of liquid dish neat product liquid-air partition coefficient greater than or equal to 7)
CC1=C2CCC3(C)OC3C2C(C)(C)CCC1 (stereo not drawn) [Material 624]	K (Log of liquid dish neat product liquid-air partition coefficient greater than or equal to 7)
CCCCCC1C(=O)CCC1CC(=O)OC (stereo not drawn) [Material 1083]	K (Log of liquid dish neat product liquid-air partition coefficient greater than or equal to 7)
CC(C)=CCCC(C)(O)C1CC=C(C)CC1 (stereo not drawn) [Material 718]	K (Log of liquid dish neat product liquid-air partition coefficient greater than or equal to 7)
C=C1CC[C@@H]2[C@H]([C@H]3[C@H]1CC[C@]3(C)O)C2(C)C [Material 1035]	K (Log of liquid dish neat product liquid-air partition coefficient greater than or equal to 7)
CCC=C(C)C(O)CCCCC (stereo not drawn) [Material 1104]	K (Log of liquid dish neat product liquid-air partition coefficient greater than or equal to 7)
Cc1cccc(CCO)c1 [Material 928]	K (Log of liquid dish neat product liquid-air partition coefficient greater than or equal to 7)
CCCCCCCC/C=C\CC=O [Material 884]	K (Log of liquid dish neat product liquid-air partition coefficient greater than or equal to 7)
CCC(=O)OC(C)(C)C1CC=C(C)CC1 (stereo not drawn) [Material 686]	K (Log of liquid dish neat product liquid-air partition coefficient greater than or equal to 7)
CCCC(O)Cc1ccccc1 (stereo not drawn) [Material 730]	K (Log of liquid dish neat product liquid-air partition coefficient greater than or equal to 7)
CC(=O)OC(C)CCC=C(C)CCC=C(C)C (stereo not drawn) [Material 881]	K (Log of liquid dish neat product liquid-air partition coefficient greater than or equal to 7)
